“Also recorded” adds a separate entry of the source. Read-outs that look alike come from different tables or passages of the source.
What was measured:
Aβ1–40 aggregates [1] = biological target: T1, Aβ1–40 aggregates (Homo sapiens, UniProt P05067); assay: Competition binding assay on Aβ1–40 aggregates using [125I]TZDM as radio-ligand; conditions: Aβ1–40 aggregates against [125I]TZDM; triplicate, mean ± SD
T1 construct: β-amyloid(1–40) were purchased from AnaSpec; purchased AnaSpec (San Jose, CA, USA)
Protocol: The lyophilized white powder of β-amyloid(1–40) were purchased from AnaSpec (San Jose, CA, USA). After reconstituted by adding basic buffer (1% NH4OH. 60–70 μL) to β-amyloid (1–40) (1 mg) aggregation of Aβ1–40 was carried out by gently dissolving Aβ1–40 (0.25 mg/mL) in a PBS buffer (pH 7.4). The solution was incubated at 37 °C for 72 h with gentle and constant shaking. Binding studies were carried out according to the procedure described previously with some modifications using [^125I]TZDM as the radiolabeled standard. […] The mixture was incubated at 37 °C for 2 h. […] Filters containing the bound ^125I ligand were counted in a γ-counter (WALLAC Wizard 1470, PerkinElmer Life Sciences, Waltham, MA, USA) with 75% counting efﬁciency. The IC50 values were determined using GraphPad Prism 5.0, and those for the inhibition constant (Ki) were calculated using the Cheng Prusoff equation: Ki = IC50/(1 + [L]/Kd).

Aβ1–40 aggregates [2] = biological target: T1, Aβ1–40 aggregates; design: method as in PMID 11384236; conditions: literature value ref 21; cited from earlier work
[3] = Partition coefficient determination (n-octanol/PBS); type: physicochemical; conditions: n-octanol / PBS 0.02 M, pH 7.4
Protocol: The determination of partition coefﬁcients of [^125I]8 and [^125I]17 was performed according to the procedure previously reported with some modifications. Ligand [^125I]8 or [^125I]17 (~5 μCi) was mixed with 3 mL each of n-octanol and PBS (0.02 M, pH 7.4) in a test tube. The test tube was vortexed for 5 min at room temperature, followed by centrifugation for 10 min at 3,000 rpm. Two weighed samples from the n-octanol (50 µL) and buffer layers (400 µL) were counted in a γ-counter. The partition coefﬁcient was expressed as the logarithm of the ratio of the counts per gram from n-octanol versus that of PBS. Samples from the n-octanol layer were repartitioned until consistent partition coefﬁcient values were obtained. The measurements were done in triplicate and repeated three times.

Aβ plaques = Aβ plaques (Homo sapiens, UniProt P05067); assay: In vitro labeling of brain sections from transgenic mouse by autoradiography; type: binding, transgenic model mouse (APP/PS1); conditions: APP/PS1, 12 months, male
Protocol: The brain sections mentioned above were incubated with [^125I]8 (5 µCi/100µL) for about 20 min at room temperature. Then the sections were washed with saturated Li2CO3 in 40% EtOH for 3 min and 40% EtOH for 3 min, followed by rinsing with water for 30 s. After drying, the ^125I-labeled sections were exposed to phosphorus ﬁlm for 8 h and then scanned with the phosphor imaging system (Cyclone, Packard) at the resolution of 600 dpi. The presence and localization of plaques were confirmed by the ﬂuorescent staining with thioﬂavin-S on the same sections using a Stereo Discovery V12 (Zeiss) instrument equipped with a LP 505 filter set (excitation: 405 nm).

[4] = In vivo biodistribution in normal mice; design: species or system KunMing normal mice; conditions: for Biodistribution Blood / Biodistribution Brain / Biodistribution Heart / Biodistribution Kidney / Biodistribution Liver / Biodistribution Lung / Biodistribution Muscle / Biodistribution Spleen / Biodistribution Stomach: iv injection
Protocol: In vivo biodistribution studies were performed in KunMing normal mice (female, average weight 18–22 g) and in accordance with the national laws related to the care and experiments on laboratory animal. A saline solution (100 µL) containing [^125I]8 or [^125I]17 (1 µCi) was injected directly into the tail vein of mice. The mice (n = 5 for each time point) were sacriﬁced at designated time points post-injection. The organs of interest were removed and weighed, and the radioactivity was counted with an automatic γ-counter (WALLAC Wizard 1470).

Aβ plaques, sequence (P05067 672-711 limits assumed): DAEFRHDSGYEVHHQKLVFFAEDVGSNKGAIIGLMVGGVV
T1 sequence (P05067 672-711 limits assumed): as above

SMILES: CN(C)c1ccc(-c2nc3ccc(I)cc3s2)cc1 [TZDM, reference compound]
- Ki (Aβ1–40 aggregates [1]): 4.2 ± 0.4 nM
- Ki (Aβ1–40 aggregates [2]): 0.9 ± 0.2 nM

SMILES: [125I]c1ccc(/C=C/c2ccc3[nH]ccc3c2)cc1 [[^125I]8]
- logD [3]: 2.52
- Autoradiography labeling of Aβ plaques (Aβ plaques): intense and specific labeling of Aβ plaques; also recorded: excellent labeling of Aβ plaques in the cortex region; also recorded: clearly labeled amyloid plaques in the cortex region
- brain2min/brain60min ratio ([4]; index of washout rate from normal brain): 15.3
- Biodistribution Blood ([4]; 2 min): 11.91 ± 0.62 % ID/g
- Biodistribution Brain ([4]; 2 min): 4.27 ± 0.49 % ID/g
- Biodistribution Heart ([4]; 2 min): 5.76 ± 0.38 % ID/g
- Biodistribution Kidney ([4]; 2 min): 11.66 ± 1.52 % ID/g
- Biodistribution Liver ([4]; 2 min): 14.73 ± 0.66 % ID/g
- Biodistribution Lung ([4]; 2 min): 10.76 ± 0.63 % ID/g
- Biodistribution Muscle ([4]; 2 min): 2.64 ± 0.40 % ID/g
- Biodistribution Spleen ([4]; 2 min): 4.38 ± 0.33 % ID/g
- Biodistribution Stomach ([4]; 2 min): 1.23 ± 0.56 % ID/organ
- Biodistribution Blood ([4]; 15 min): 12.29 ± 1.30 % ID/g
- Biodistribution Brain ([4]; 15 min): 1.37 ± 0.16 % ID/g
- Biodistribution Heart ([4]; 15 min): 3.70 ± 0.40 % ID/g
- Biodistribution Kidney ([4]; 15 min): 14.89 ± 4.23 % ID/g
- Biodistribution Liver ([4]; 15 min): 10.66 ± 0.31 % ID/g
- Biodistribution Lung ([4]; 15 min): 8.22 ± 0.88 % ID/g
- Biodistribution Muscle ([4]; 15 min): 2.01 ± 0.24 % ID/g
- Biodistribution Spleen ([4]; 15 min): 4.21 ± 0.26 % ID/g
- Biodistribution Stomach ([4]; 15 min): 4.82 ± 0.46 % ID/organ
- Biodistribution Blood ([4]; 30 min): 7.64 ± 0.62 % ID/g
- Biodistribution Brain ([4]; 30 min): 0.64 ± 0.11 % ID/g
- Biodistribution Heart ([4]; 30 min): 2.55 ± 0.52 % ID/g
- Biodistribution Kidney ([4]; 30 min): 9.46 ± 1.95 % ID/g
- Biodistribution Liver ([4]; 30 min): 7.14 ± 1.13 % ID/g
- Biodistribution Lung ([4]; 30 min): 5.39 ± 0.83 % ID/g
- Biodistribution Muscle ([4]; 30 min): 1.25 ± 0.04 % ID/g
- Biodistribution Spleen ([4]; 30 min): 3.44 ± 0.21 % ID/g
- Biodistribution Stomach ([4]; 30 min): 3.50 ± 0.19 % ID/organ
- Biodistribution Blood ([4]; 60 min): 4.49 ± 0.28 % ID/g
- Biodistribution Brain ([4]; 60 min): 0.28 ± 0.06 % ID/g
- Biodistribution Heart ([4]; 60 min): 1.59 ± 0.28 % ID/g
- Biodistribution Kidney ([4]; 60 min): 4.65 ± 0.98 % ID/g
- Biodistribution Liver ([4]; 60 min): 4.45 ± 0.23 % ID/g
- Biodistribution Lung ([4]; 60 min): 3.28 ± 0.10 % ID/g
- Biodistribution Muscle ([4]; 60 min): 0.81 ± 0.12 % ID/g
- Biodistribution Spleen ([4]; 60 min): 2.44 ± 0.12 % ID/g
- Biodistribution Stomach ([4]; 60 min): 1.72 ± 0.21 % ID/organ
- Biodistribution Blood ([4]; 120 min): 2.93 ± 0.30 % ID/g
- Biodistribution Brain ([4]; 120 min): 0.20 ± 0.08 % ID/g
- Biodistribution Heart ([4]; 120 min): 1.47 ± 0.48 % ID/g
- Biodistribution Kidney ([4]; 120 min): 1.93 ± 0.76 % ID/g
- Biodistribution Liver ([4]; 120 min): 4.19 ± 0.61 % ID/g
- Biodistribution Lung ([4]; 120 min): 2.30 ± 0.20 % ID/g
- Biodistribution Muscle ([4]; 120 min): 0.61 ±0.24 % ID/g
- Biodistribution Spleen ([4]; 120 min): 1.87 ± 0.28 % ID/g
- Biodistribution Stomach ([4]; 120 min): 3.48 ± 0.79 % ID/organ
- Biodistribution Blood ([4]; 240 min): 1.50 ± 0.13 % ID/g
- Biodistribution Brain ([4]; 240 min): 0.10 ± 0.02 % ID/g
- Biodistribution Heart ([4]; 240 min): 0.65 ± 0.16 % ID/g
- Biodistribution Kidney ([4]; 240 min): 1.34 ± 0.36 % ID/g
- Biodistribution Liver ([4]; 240 min): 3.06 ± 0.36 % ID/g
- Biodistribution Lung ([4]; 240 min): 1.43 ± 0.52 % ID/g
- Biodistribution Muscle ([4]; 240 min): 0.35 ± 0.09 % ID/g
- Biodistribution Spleen ([4]; 240 min): 1.37 ± 0.09 % ID/g
- Biodistribution Stomach ([4]; 240 min): 2.31 ± 1.44 % ID/organ

Reference: paper PMC6268995, “(E)-5-Styryl-1H-indole and (E)-6-Styrylquinoline Derivatives Serve as Probes for β-Amyloid Plaques” (Molecules, 2012)
